The values that follow come from patent US20090202661A1, “BEVERAGE MANUFACTURE, PROCESSING, PACKAGING AND DISPENSING USING ELECTROCHEMICALLY ACTIVATED WATER” (priority 2008, published 2009).

A short description of this data set: Residue neutralization: recovery and breakdown of pesticide and fungicide active ingredients after exposure to anolyte dilutions. The format is physicochemical. Conditions: 5 minutes, ambient temperature. As for the experimental part: The breakdown of pesticide and fungicide residues by an oxidant ECA anolyte solution was evaluated as follows.
The oxidant anolyte solution was diluted using a 10 fold dilution series. As a control for this test, the potential for non-ECA based hydrolysis or chemical breakdown was assessed using two untreated control solutions, one being the tap water used as the diluent in the anolyte dilution series and the other being the non-activated brine solution that was used as the electrolysis feed solution prior to electro-activation.
The experiment was performed to contrast the difference in degree of recovery of a variety of pesticide and fungicide active ingredients (AI's) after the tap water and the various diluted anolyte solutions were ‘spiked’ with the same AI's at fixed inclusion rates. In each case, a one ppm cocktail of the active ingredients was added to a 100 ml aliquot of the test or control solution sample. The test samples were agitated with a mechanical stirrer for 5 minutes at ambient temperature and then extracted with an organic solvent and analyzed by either gas or liquid chromatography.

Where [1] appears, read: 0.25% Brine (nonactivated control).

`CNC(=O)O/N=C/C(C)(C)[S+](C)[O-]` (stereo not shown) [Aldicarb sulfoxide]: the ng found by setting is: under setting [1], 0.672 ng; (1% Anolyte solution) 0.514 ng; (10% anolyte solution) 0.000 ng; (100% anolyte solution) 0.000 ng. Besides, the “% breakdown” value reads like this: (1% Anolyte solution) 15.8%; (10% anolyte solution) 100%; (100% anolyte solution) 100%.
As to `CNC(=O)O/N=C/C(C)(C)SC` [Aldicarb], the ng found under setting [1] turned out to be 0.920 ng, the ng found (1% Anolyte solution) was 0.425 ng, the ng found (10% anolyte solution) worked out at 0.000 ng and the ng found (100% anolyte solution) was found to be 0.000 ng. In addition, the “% breakdown” value reads like this: (1% Anolyte solution) 49.5%; (10% anolyte solution) 100%; (100% anolyte solution) 100%.
On to `COP(=S)(OC)SCn1nnc2ccccc2c1=O` [Azinphos-methyl], for which the ng found stood at 2.341 ng under setting [1], 2.393 ng (1% Anolyte solution), 0.000 ng (10% anolyte solution) and 0.000 ng (100% anolyte solution). The “% breakdown” value is reported as 0.0% (1% Anolyte solution), 100% (10% anolyte solution) and 100% (100% anolyte solution).
With `CCCCNC(=O)n1c(NC(=O)OC)nc2ccccc21` [Benomyl], the ng found was 0.970 ng under setting [1], 0.890 ng (1% Anolyte solution), 0.520 ng (10% anolyte solution) and 0.000 ng (100% anolyte solution). In addition, the “% breakdown” value is, setting by setting: (1% Anolyte solution) 8.0%; (10% anolyte solution) 45%; (100% anolyte solution) 100%.
As for `CCCCc1c(C)nc(NCC)nc1OS(=O)(=O)N(C)C` [Bupirimate], the ng found is 1.250 ng under setting [1], 1.233 ng (1% Anolyte solution), 0.730 ng (10% anolyte solution) and 0.074 ng (100% anolyte solution). The “% breakdown” value was found to be 0.0% (1% Anolyte solution), 52.0% (10% anolyte solution) and 100% (100% anolyte solution).
In the case of `CCOP(=S)(OCC)Oc1nc(Cl)c(Cl)cc1Cl` [Chlorpyrifos], the ng found is listed as 1.014 ng under setting [1], 1.039 ng (1% Anolyte solution), 0.05 ng (10% anolyte solution) and 0.049 ng (100% anolyte solution). For the same compound, the “% breakdown” value (1% Anolyte solution) is on record as 0.0%, the “% breakdown” value (10% anolyte solution) worked out at 100% and the “% breakdown” value (100% anolyte solution) was 100%.
Turning to `Cc1cc(C2CC2)nc(Nc2ccccc2)n1` [Cyprodinil], the ng found reads like this: under setting [1], 1.297 ng; (1% Anolyte solution) 1.356 ng; (10% anolyte solution) 0.068 ng; (100% anolyte solution) 0.026 ng. The “% breakdown” value (1% Anolyte solution) stood at 0.0%, the “% breakdown” value (10% anolyte solution) is listed as 96.3% and the “% breakdown” value (100% anolyte solution) is recorded as 100%.
For the compound `CO/N=C(/C(=O)OC)c1ccccc1COc1ccccc1C` [Kresoxim-methyl], the ng found reads like this: under setting [1], 1.300 ng; (1% Anolyte solution) 1.328 ng; (10% anolyte solution) 1.344 ng; (100% anolyte solution) 0.035 ng. For the same compound, the “% breakdown” value was found to be 0.0% (1% Anolyte solution), 0.0% (10% anolyte solution) and 100% (100% anolyte solution).
Consider `CCOC(=O)CC(SP(=S)(OC)OC)C(=O)OCC` (stereo not shown) [Malathion], for which the ng found reads like this: under setting [1], 1,327 ng; (1% Anolyte solution) 1.368 ng; (10% anolyte solution) 0.066 ng; (100% anolyte solution) 0.067 ng. For the same compound, the “% breakdown” value (1% Anolyte solution) is 0.0%, the “% breakdown” value (10% anolyte solution) is listed as 100% and the “% breakdown” value (100% anolyte solution) amounted to 100%.
Take `CNC(=O)ON=C(C)SC` [Methomyl]: the ng found amounted to 1.006 ng under setting [1], 0.634 ng (1% Anolyte solution), 0.000 ng (10% anolyte solution) and 0.000 ng (100% anolyte solution). Also, the “% breakdown” value by setting is: (1% Anolyte solution) 36.6%; (10% anolyte solution) 100%; (100% anolyte solution) 100%.
